# According to paper PMC9710854 (Chemical communications (Cambridge, England), 2022):
# Columns and labels:
# [1] = Plasma protein binding estimated by an HPLC-based method; assay type: in vitro ADME
# USP7 catalytic domain = USP7 catalytic domain (Homo sapiens, UniProt Q93009); experiment: USP7 inhibition with isolated USP7 catalytic domain using Ub-AMC as a substrate; assay type: biochemical
# MM.1S cells = experiment: Cell viability of MM.1S cells after 24 h treatment; assay type: cell-based
# [2] = Experimental partition coefficient; assay type: physicochemical
# Sequence of USP7 catalytic domain (Q93009 214-521 limits assumed): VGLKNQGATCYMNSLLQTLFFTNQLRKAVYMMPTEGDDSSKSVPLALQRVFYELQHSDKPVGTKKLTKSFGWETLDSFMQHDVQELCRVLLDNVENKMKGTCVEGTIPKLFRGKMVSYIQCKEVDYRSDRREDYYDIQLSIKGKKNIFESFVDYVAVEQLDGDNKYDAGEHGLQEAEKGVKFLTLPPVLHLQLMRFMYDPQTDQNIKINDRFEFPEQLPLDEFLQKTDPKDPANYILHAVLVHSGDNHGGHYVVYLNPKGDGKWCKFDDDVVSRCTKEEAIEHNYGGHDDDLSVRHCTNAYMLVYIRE
SMILES,fraction unbound ([1]; plasma),IC50 (USP7 catalytic domain) [nM],"viability at 10 µM (MM.1S cells; Homo sapiens, MM1.S, read-out: cell viability) [%]",logD [2],"PPB ([1]; plasma protein binding, estimated by an HPLC-based method) [%]","cell viability (MM.1S cells; remaining viability, MM.1S cells, 10 μM) [%]"
"O=C(C[C@@H](C(F)F)n1ccc(F)n1)N1CCC(O)(Cn2cnc3c(cnn3-c3ccc(F)cc3)c2=O)CC1 [Compound 2, FT671]",0.1,32 ± 7,41,2.5,–,–
"C[C@H](CC(=O)N1CCC(O)(Cn2cnc3cc(NC(=O)CCN4CCN(C)CC4)ccc3c2=O)CC1)c1ccccc1 [Compound 3, XL188]",–,–,–,1.3,87,43
